# Data published in article PMC4818757, “Small molecule inhibitors of the Dishevelled‐CXXC5 interaction are new drug candidates for bone anabolic osteoporosis therapy” (EMBO Molecular Medicine, 2016).
# Assays:
# [1] = tested on: ex vivo‐cultured calvaria; assay: Ex vivo calvaria culture, thickness; type: cell-based, mouse; details: 7 days
# Experimental: Figure 1 Identification and characterization of small molecules competing Dvl–CXXC5 binding in vitro • A A scheme for in vitro screening method of small molecules competing Dvl–CXXC5 binding. Briefly, purified Dvl PDZ domain was attached to the polystyrene surface of each well of 96‐well plates. Then, PolyR‐DBM (polyarginine‐conjugated Dvl binding motif tagged with FITC) (Kim et al, 2015) was added to each well and allowed to bind to the Dvl PDZ domain; 10 μM small‐molecule compound was added to each well, and the compounds competing with Dvl PZD‐PolyR‐DBM binding were measured by a microplate reader to screen the compounds reducing fluorescence signal. • B Screening results of compounds competing Dvl–CXXC5 interaction. […] The relative numbers of β‐catenin‐positive nuclei were counted (D). […] The calvaria thicknesses were measured from the images using Image Pro software (F). […] (error bars), and significance was assessed using unpaired Student's t‐test.
# Figure 3 Effect of KY‐02061 on Wnt/β‐catenin pathway, osteoblast differentiation, and ex vivo‐cultured calvaria growth • A MC3T3E1 cells were transfected with pTOPFLASH together with pCMV‐β‐gal. […] The luciferase activities of whole‐cell lysates were measured and normalized with β‐galactosidase activities. […] The calvaria thicknesses were measured from the stained sections using Image Pro software (E). […]
# Dvl PDZ domain = biological target: T1, Dvl PDZ domain (Homo sapiens, UniProt O14640); assay: Fluorescence quenching of Dvl PDZ domain; details: read-out: binding affinity between Dvl PDZ domain and compound
# T1 construct: plasmid DNA encoding Dvl-1247- 341 (the Dvl PDZ domain); His-tag (TEV-cleavable) (cleaved yes); made in house; host or cells: E. coli BL21 (DE3)
# T1 sequence (O14640 247-341 limits assumed): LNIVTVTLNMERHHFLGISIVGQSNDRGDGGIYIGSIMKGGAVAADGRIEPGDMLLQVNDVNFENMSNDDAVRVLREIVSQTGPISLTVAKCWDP
# Experimental: Figure 4 Binding of KY‐02327, a KY‐02061 analog, on Dvl PDZ domain • A The chemical structure of KY‐02327. • B A competition curve for the Dvl–CXXC5 interaction by KY‐02327. • C Fluorescence quenching plot of Dvl PDZ domain upon addition of different amounts of KY‐02327. From top to bottom, final molar ratio between Dvl PDZ and KY‐02327 was 1:0, 1:1, 1:2, 1:3, 1:4, 1:5, 1:6, 1:7, 1:8, 1:9, 1:10, 1:15, 1:20, and 1:25, respectively. • D–F ^1H‐^15N‐HSQC analyses were performed to analyze the interaction of ^15N‐labeled Dvl PDZ domain with KY‐02327. […] Plot of chemical shift changes (Δδ) as a function of residue number in molecular ratio 1:20 (E, a red‐colored line indicates the line for Δδ = 0.05). The residues with Δδ greater than 0.05 are visualized as a stick model on the ribbon representation of the Dvl PDZ domain structure (F). • G Molecular docking of KY‐02061 or KY‐02327 to Dvl PDZ domain was analyzed by in silico experiments. The superimposed structure of KY‐02061 (yellow) and KY‐02327 (cyan) on the surface of Dvl PDZ domain (gray) was visualized.
# [2] = biological target: T2, Cytochrome P450 (CYP) 1A2 (Homo sapiens, UniProt P05177); assay: Cytochrome P450 inhibition assay, 1A2; details: 10 μM; 1A2, C29 and 3A4 together
# T2 sequence (P05177 1-516): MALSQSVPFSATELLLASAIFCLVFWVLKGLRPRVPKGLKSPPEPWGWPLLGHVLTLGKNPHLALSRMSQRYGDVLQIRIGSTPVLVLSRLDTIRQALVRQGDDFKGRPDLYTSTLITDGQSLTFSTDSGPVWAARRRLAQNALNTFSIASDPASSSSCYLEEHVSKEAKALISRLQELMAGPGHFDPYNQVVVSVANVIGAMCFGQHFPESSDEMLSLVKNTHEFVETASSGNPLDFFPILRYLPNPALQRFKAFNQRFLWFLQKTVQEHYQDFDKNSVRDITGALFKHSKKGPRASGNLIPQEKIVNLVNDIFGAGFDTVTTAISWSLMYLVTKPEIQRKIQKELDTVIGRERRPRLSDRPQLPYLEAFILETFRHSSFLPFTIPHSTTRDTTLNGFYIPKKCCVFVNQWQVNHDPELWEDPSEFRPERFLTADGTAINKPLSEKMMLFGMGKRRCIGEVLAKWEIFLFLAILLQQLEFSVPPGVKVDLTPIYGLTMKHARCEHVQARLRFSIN
Compound,increase of thickness of ex vivo‐cultured calvaria compared with DMSO‐treated control ([1]; 2 μM),"thickness of ex vivo‐cultured calvaria, dose dependence [1]",Kd (Dvl PDZ domain),inhibitory effect on the liver enzymes (cytochrome P450) [2]
CCOC(=O)Cn1c(C(=O)OCC)cc2cc(OS(=O)(=O)c3ccc(C)cc3)ccc21 [KY‐02061],51.2%,increased,,
CCOC(=O)c1cc2cc(O)ccc2n1CC(=O)NCCN1CCCCC1 [KY‐02327],,,8.31 ± 0.8 µM,no inhibitory effect
